Where two headings read alike, the source gives them in different places.
Key:
[1] = molecular target: T1, Human cytomegalovirus DNA polymerase (Human cytomegalovirus, UniProt P08546); assay: CMV polymerase assay (AlphaLISA); type: biochemical; conditions: polymerase assay of Example 27, HCMV polymerase 0.2 nM
T1 construct: made in house; host or cells: SF21 insect cells (baculovirus vector)
Experimental: (§1) CMV and VZV Polymerase Assays
(§2) Human cytomegalovirus and varicella zoster virus DNA polymerases were expressed via baculovirus vector in SF21 cells and purified. Heterodimeric nucleic acid substrate used in the herpesvirus polymerase reactions were generated by annealing a 59-mer template to a 17-mer digoxigenin-labeled primer. Polymerase (HCMV final concentration of 0.2 nM; VZV final concentration of 0.4 nM) was combined with an inhibitor compound or DMSO in assay buffer (10 mM HEPES, pH 7.5, 25 mM KCl, 25 mM NaCl, 5 mM MgCl2, 5% glycerol, 0.67 mg/mL bovine serum albumin, and 1 mM tris(2-carboxyethyl)phosphine)), and this mixture was pre-incubated for 30 minutes at room temperature in 384-well microtiter plates. The polymerization reaction was initiated by the addition of template/primer substrate (final concentration: 1.6 nM) and dNTPs (final concentration: 24 nM dCTP, 24 nMdGTP, 16 nM dATP, 16 nM dTTP, and 0.8 nM biotin-dUTP). After a 60 minute incubation period at 37° C., the reactions were terminated using quench buffer (25 mM HEPES pH 7.5, 100 mM NaCl, 0.25% Tween-20, 12 mM EDTA, and 1 mg/mL bovine serum albumin). Incorporation of biotinylated UTP was detected with 2.5-5 μg/mL anti-DIG AlphaLISA acceptor beads and 5-10 μg/mL streptavidin AlphaLISA donor beads (PerkinElmer). Compound effects were normalized to the window defined by the controls (DMSO only and pre-quenched wells) and were fit using a 4-parameter algorithm to report an IC50.

[2] = molecular target: T2, varicella zoster virus DNA polymerase (Varicella-zoster virus, UniProt P09252); assay: VZV polymerase assay (AlphaLISA); type: biochemical; conditions: polymerase assay of Example 27, VZV polymerase 0.4 nM
T2 construct: made in house; host or cells: SF21 insect cells (baculovirus vector)
Experimental: as §1, §2

[3] = system: HCMV Strain AD169 in MRC-5 cells; assay: CMV cell assay; type: cell-based
Experimental: MRCS and Vero cells were obtained from ATCC and were maintained at 37° C./5% CO2/90% relative humidity in Minimal Essential Medium with 10% fetal bovine serum, […], 100 units/mL penicillin and 100 ug/mL streptomycin. Assay plates were prepared by dispensing compounds dissolved in DMSO into wells of 384 well collagen-coated plates using an ECHO acoustic dispenser. Each test compound was tested in a 10-point, serial 3-fold dilution. Controls included uninfected cells and infected cells treated only with DMSO. Assays were initiated by mixing selected cells, in suspension, with virus, and dispensing 50 μl/well infected cells to pre-plated compounds. Plates were incubated at 37° C./5% CO2/90% relative humidity for ˜72 hours to permit genomic replication, and infected cells were lysed by the addition of an equal volume of lysis buffer (10 mM Tris-HCl, pH8, 50 mM KCl, 2 mM MgCl2, 0.45% NP-40, 0.45% Tween-20, and 100 μg/mL proteinase K). An aliquot of the lysate was then transferred to a 384-well PCR plate and incubated at 56° C. for 1 hour, and then at 95° C. for 10 minutes. Levels of a viral gene were measured in 10 ul qPCR assays using TaqMan® Gene Expression Master Mix (Applied Biosystems) and an 7900HT Fast Real-Time PCR System with 384-Well Block Module. 7-point, serial 10-fold dilutions of a plasmid standard were run on each plate to generate a standard curve, and genome copies numbers were calculated by plotting experimental Ct onto linear regression of the standard curve. Compound effects on viral genome copy number were normalized to the window defined by the controls. Calculated % effects were fit using a 4-parameter algorithm, and EC50 was reported.
HCMV: Strain AD169 was assayed in MRC-5 cells and was used at 0.05-0.1 pfu/cell. The assays were performed in either growth media or in the same media with 50% fetal bovine serum. Primer-probe set was Thermo Fisher Assay ID=AIFATFK. HSV-1: Strain F was assayed in Vero or MRCS cells and was used at 0.0005-0.004 pfu/cell in growth medium. Primer-probe set was Thermo Fisher Assay ID=AIBJZIB. HSV-2: Strain G was assayed in Vero or MRCS cells and was used at 0.004-0.4 pfu/cell in growth medium. Primer-probe set was Thermo Fisher Assay ID=AICSXOJ.

[4] = system: HSV-1, strain F in Vero cells; assay: HSV CPE assay, HSV-1; type: cell-based
Experimental: (§3) Vero cells were maintained at 37° C./5% CO2/90% relative humidity in Dulbecco's Modified Eagle's Medium with 10% fetal bovine serum, […], 100 units/mL penicillin and 100 ug/mL streptomycin. For this assay, Vero cells (maintained at 37° C./5% CO2/90% relative humidity in Dulbecco's Modified Eagle's Medium with 10% fetal bovine serum, […], 100 units/mL penicillin and 100 μg/mL streptomycin) were seeded in 96-well microtiter plates and incubated for about 15 hours. They were then infected with HSV-1, strain F, or with HSV-2, strain G, at a multiplicity of infection known to result in 85-95% loss of cell viability during the assays, in the same media with 2% fetal bovine serum. Test compounds were dissolved in DMSO, and 6 point serial 10-fold dilutions in DMSO were prepared. Test compounds were added to infected cells, and the plates were incubated at 37° C./5% CO2/90% relative humidity for 5 days. Each plate contains cell control wells (cells only), virus control wells (cells plus virus), drug colorimetric control wells (drug only), background control wells (media only) and experimental wells (drug plus cells plus virus). Cytoprotection was assessed by the addition of Celltiter®96 Reagent (Promega, Madison, Wis.), according to manufacturer's recommendations. % cytopathic effect (CPE) reduction was calculated and IC50 (concentration inhibition virus replication by 50%) was reported.

[5] = system: HSV-2, strain G in Vero cells; assay: HSV CPE assay, HSV-2; type: cell-based
Experimental: as §3

[6] = Human betaherpesvirus 5, AD169, MRC5, footnote b: assay described in Example 25, read-out: CMV Cell^b (EC50)
[7] = Human alphaherpesvirus 1, 120 h, unstarred values: CPE assay of Example 25, Vero cells, 5 days, read-out: HSV1 Cell^b (EC50)
[8] = Human alphaherpesvirus 2, 120 h, unstarred values: CPE assay of Example 25, Vero cells, 5 days, read-out: HSV2 Cell^b CPE(EC50)
[9] = Human betaherpesvirus 5, AD169, MRC5, read-out: CMV Cell^b (EC50), footnote b: assay described in Example 25
[10] = Human alphaherpesvirus 1, Vero, 120 h, read-out: HSV1 Cell^b (EC50), unstarred values: CPE assay of Example 25, Vero cells, 5 days
[11] = Human alphaherpesvirus 2, Vero, 120 h, read-out: HSV2 Cell^b CPE(EC50), unstarred values: CPE assay of Example 25, Vero cells, 5 days
[12] = read-out: HSV1 Cell^b (EC50), unstarred values: CPE assay of Example 25, Vero cells, 5 days

T2 sequence (P09252 whole entry): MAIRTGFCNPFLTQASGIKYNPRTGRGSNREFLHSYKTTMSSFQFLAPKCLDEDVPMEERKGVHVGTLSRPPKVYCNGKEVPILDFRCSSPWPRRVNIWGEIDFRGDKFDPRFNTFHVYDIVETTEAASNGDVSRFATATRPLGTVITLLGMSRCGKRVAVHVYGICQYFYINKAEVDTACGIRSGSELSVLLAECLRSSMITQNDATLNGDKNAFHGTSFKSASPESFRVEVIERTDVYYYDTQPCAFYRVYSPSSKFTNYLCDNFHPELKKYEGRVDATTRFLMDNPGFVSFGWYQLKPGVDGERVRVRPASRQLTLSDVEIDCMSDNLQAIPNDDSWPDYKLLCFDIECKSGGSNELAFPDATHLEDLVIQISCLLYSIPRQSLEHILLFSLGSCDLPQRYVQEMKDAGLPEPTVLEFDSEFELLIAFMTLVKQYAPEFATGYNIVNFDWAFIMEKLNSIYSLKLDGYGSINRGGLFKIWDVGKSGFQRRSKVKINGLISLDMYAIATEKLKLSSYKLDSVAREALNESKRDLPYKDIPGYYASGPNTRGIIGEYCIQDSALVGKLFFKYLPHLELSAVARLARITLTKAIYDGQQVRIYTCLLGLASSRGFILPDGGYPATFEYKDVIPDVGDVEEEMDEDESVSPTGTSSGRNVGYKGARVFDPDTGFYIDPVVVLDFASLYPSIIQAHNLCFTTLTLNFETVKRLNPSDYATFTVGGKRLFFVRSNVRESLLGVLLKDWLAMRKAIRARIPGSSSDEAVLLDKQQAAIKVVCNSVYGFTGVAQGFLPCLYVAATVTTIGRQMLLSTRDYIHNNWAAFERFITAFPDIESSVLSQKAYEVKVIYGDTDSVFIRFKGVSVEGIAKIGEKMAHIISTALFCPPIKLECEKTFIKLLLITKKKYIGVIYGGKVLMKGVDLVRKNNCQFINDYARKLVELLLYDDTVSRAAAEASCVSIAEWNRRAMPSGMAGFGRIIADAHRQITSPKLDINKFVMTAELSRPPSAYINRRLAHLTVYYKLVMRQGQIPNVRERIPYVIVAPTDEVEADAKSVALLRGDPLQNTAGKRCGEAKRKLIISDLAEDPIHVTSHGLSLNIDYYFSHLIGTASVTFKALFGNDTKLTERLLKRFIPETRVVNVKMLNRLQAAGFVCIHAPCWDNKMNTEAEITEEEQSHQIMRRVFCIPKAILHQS
T1 sequence (P08546 whole entry): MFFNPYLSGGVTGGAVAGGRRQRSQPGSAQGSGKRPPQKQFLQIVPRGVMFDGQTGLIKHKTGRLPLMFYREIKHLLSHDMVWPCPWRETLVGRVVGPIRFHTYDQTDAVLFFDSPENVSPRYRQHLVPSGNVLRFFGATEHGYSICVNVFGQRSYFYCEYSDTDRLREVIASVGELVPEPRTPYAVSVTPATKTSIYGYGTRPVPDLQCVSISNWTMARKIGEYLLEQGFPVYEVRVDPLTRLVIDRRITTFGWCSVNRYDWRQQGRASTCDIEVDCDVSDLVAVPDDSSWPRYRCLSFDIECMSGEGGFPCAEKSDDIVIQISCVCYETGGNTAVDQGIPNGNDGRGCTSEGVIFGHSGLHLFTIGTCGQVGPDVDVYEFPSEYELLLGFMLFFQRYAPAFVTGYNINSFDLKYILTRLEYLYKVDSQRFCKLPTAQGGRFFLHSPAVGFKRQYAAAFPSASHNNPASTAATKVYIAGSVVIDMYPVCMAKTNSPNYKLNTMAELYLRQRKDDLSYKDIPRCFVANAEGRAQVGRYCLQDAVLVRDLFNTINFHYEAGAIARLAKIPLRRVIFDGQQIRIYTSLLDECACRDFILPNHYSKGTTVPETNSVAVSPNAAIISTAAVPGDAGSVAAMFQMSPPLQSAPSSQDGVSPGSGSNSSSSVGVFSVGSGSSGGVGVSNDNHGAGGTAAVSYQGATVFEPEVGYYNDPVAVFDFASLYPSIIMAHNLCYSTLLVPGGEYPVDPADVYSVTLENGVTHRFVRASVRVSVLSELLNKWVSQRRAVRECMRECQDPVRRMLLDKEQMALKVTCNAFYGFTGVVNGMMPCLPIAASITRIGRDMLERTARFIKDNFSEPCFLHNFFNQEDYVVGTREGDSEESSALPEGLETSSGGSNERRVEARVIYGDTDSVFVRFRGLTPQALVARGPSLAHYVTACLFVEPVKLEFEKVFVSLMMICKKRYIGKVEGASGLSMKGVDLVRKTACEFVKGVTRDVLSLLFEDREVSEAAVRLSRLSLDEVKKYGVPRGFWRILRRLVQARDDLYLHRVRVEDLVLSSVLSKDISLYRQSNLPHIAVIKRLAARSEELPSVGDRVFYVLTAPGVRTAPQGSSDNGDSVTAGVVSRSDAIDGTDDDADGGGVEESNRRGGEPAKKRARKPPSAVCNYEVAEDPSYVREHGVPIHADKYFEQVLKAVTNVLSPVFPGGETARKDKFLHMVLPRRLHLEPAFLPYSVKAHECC

Structure (SMILES)	IC50 ([1]; read-out: CMV^a (IC50)) [nM]	IC50 ([2]; read-out: VZV^a (IC50)) [nM]	EC50 [3, 6] [nM]	EC50 [4, 7] [nM]	EC50 [5, 8] [nM]	other results
Cn1nc(C(=O)NCc2ccc(Cl)cc2)c2c3c(ccc21)C(N1CCOCC1)CC3 (single isomer, unassigned) [Compound 16]	260	38	970	1500	1600	
Cc1c(N2CCn3nncc3C2)ccc2c(C(=O)NCc3ccc(C#N)cc3)nn(CCC#N)c12 [Compound 1]						IC50 ([1]; CMV^a (IC50)): 53 nM; IC50 ([2]; VZV^a (IC50)): 13 nM; EC50 [3, 9]: 120 nM; EC50 [4, 10]: 1600 nM; EC50 [5, 11]: 2500 nM
Cc1c(N2CCn3nncc3C2)ccc2c(C(=O)NCc3ccc(Cl)cc3)nn(C3CCNC3)c12 (stereo not shown) [Compound 4]						IC50 ([1]; CMV^a (IC50)): 37 nM; IC50 ([2]; VZV^a (IC50)): 16 nM; EC50 [3, 9]: 85 nM; EC50 [4, 12]: 3100 nM; EC50 [5, 11]: 2100 nM
Cc1c(N2CCn3nncc3C2)ccc2c(C(=O)NCc3ccc(Cl)cc3)nn(CCOCCO)c12 [Compound 5]						IC50 ([1]; CMV^a (IC50)): 33 nM; IC50 ([2]; VZV^a (IC50)): 12 nM; EC50 [3, 9]: 97 nM; EC50 [4, 10]: > 40000 nM; EC50 [5, 11]: 610 nM
Cc1c(N2CCn3nncc3C2)ccc2c(C(=O)NCc3ccc(Cl)cc3)nn(C3CCNC3)c12 (stereo not shown) [Compound 6]						IC50 ([1]; CMV^a (IC50)): 45 nM; IC50 ([2]; VZV^a (IC50)): 19 nM; EC50 ([3]; read-out: CMV Cell^b (EC50), footnote b: assay described in Example 25): 110 nM; EC50 [4, 12]: > 40000 nM; EC50 ([5]; read-out: HSV2 Cell^b CPE(EC50), unstarred values: CPE assay of Example 25, Vero cells, 5 days): 3700 nM
O=C(NCc1ccc(Cl)cc1)c1n[nH]c2c(Cl)c(N3CCn4nncc4C3)ccc12 [Compound 7]	22	5.1	120	120	200	
Cc1cc(CN2CCCS(=O)(=O)CC2)cc2c(C(=O)NCc3ccc(C#N)cc3)nn(CCC#N)c12 [Compound 8]						IC50 ([1]; CMV^a (IC50)): 103 nM; IC50 ([2]; VZV^a (IC50)): 62 nM; EC50 [3, 9]: 150 nM; EC50 [4, 10]: 6400 nM; EC50 [5, 11]: 22000 nM
Cn1nncc1COc1ccc2c(C(=O)NCc3ccc(Cl)cc3)nn(C)c2c1Cl [Compound 10]	41	12	460	250	590	
N#Cc1c(N2CCn3nncc3C2)ccc2c(C(=O)NCc3ccc(Cl)cc3)n[nH]c12 [Compound 11]	23	3.7	93	480	700	
Cc1nnn(C)c1COc1ccc2c(C(=O)NCc3ccc(Cl)cc3)nn(C[C@@H](C)O)c2c1F [Compound 12]						IC50 ([1]; CMV^a (IC50)): 7.1 nM; IC50 ([2]; VZV^a (IC50)): 1.6 nM; EC50 [3, 9]: 300 nM
Cc1c(NCc2cnnn2C)ccc2c(C(=O)NCc3ccc(Cl)cc3)n[nH]c12 [Compound 13]	17	5	320			
Cn1nc(C(=O)NCc2ccc(Cl)cc2)c2ccc(N3CCn4nncc4C3)c(Br)c21 [Compound 15]	25	14	930	850	930	
Cc1c(CN2CCCS(=O)(=O)CC2)ccc2c1c(C(=O)NCc1ccc(Cl)cc1)nn2C [Compound 18]	120	160	2900	6300	6100	
Cc1c(CN2CCOCC2)cc(C)c2c1c(C(=O)NCc1ccc(Cl)cc1)nn2C [Compound 19]	280	66	6100	1800	5300	
Cn1nc(C(=O)NCc2ccc(Cl)cc2)c2c(O)c(CN3CCOCC3)ccc21 [Compound 20]	390	66	> 9900	> 40000	> 40000	
Cn1nc(C(=O)NCc2ccc(Cl)cc2)c2c(F)c(CN3CCOCC3)ccc21 [Compound 21]	480	180	7200	2200	3600	
Cc1c(CN2CCOCC2)cc2c(C(=O)NCc3ccc(Cl)cc3)nn(C)c2c1C [Compound 22]	580		4300			
Cn1nc(C(=O)NCc2ccc([N+](=O)[O-])cc2)c2cc(CN3CCOCC3)ccc21 [Compound 23]	990	180	12000			
Cn1nc(C(=O)NCc2ccc(Br)cc2)c2cc(CN3CCOCC3)ccc21 [Compound 24]	920	220	> 9900			
Cn1nc(C(=O)NCc2ccc(F)cc2)c2cc(CN3CCOCC3)ccc21 [Compound 26]	3300	740				
Cn1nc(C(=O)NCc2ccc(Cl)cc2)c2cnc(N3CCn4nncc4C3)cc21 [Compound 28]	810	250	7500			
Cn1nc(C(=O)NCc2ccc(Cl)cc2)c2cc(CN3CCOCC3)ncc21 [Compound 29]	2400	1600				
Cn1nc(C(=O)NCc2ccc(Cl)cc2)c2ccc(N3CCn4nncc4C3)nc21 [Compound 30]	1600	3000				
Cn1cc(C(=O)NCc2ccc(Cl)cc2)c2ccc(N3CCn4nncc4C3)cc21 [Compound 31]	190	120				
Cc1c(N2CCn3nncc3C2)ccc2c(C(=O)NCc3ccc(C#N)cc3)nn(C[C@H](C)NC(=O)C(C)C)c12 [Compound 32]						IC50 ([1]; CMV^a (IC50)): 4.2 nM; IC50 ([2]; VZV^a (IC50)): 1.8 nM; EC50 [3, 9]: 60 nM; EC50 [4, 10]: 14000 nM; EC50 [5, 11]: 13000 nM
